Measured values reported in US20130040882A1, “USE OF FIBROBLAST GROWTH FACTOR FRAGMENTS” (NOVARTIS AG, priority 2003, published 2013).

Test system: uterine gene expression
Experiment: Gene expression profiling (HGU133A) in the uterus of ovariectomized monkeys treated with estradiol, tamoxifen or raloxifene
Format: in vivo, cynomolgus monkeys (Macaca fascicularis)
Settings: uterus, OVX monkeys

SMILES: CC/C(=C(\c1ccccc1)c1ccc(OCCN(C)C)cc1)c1ccccc1 [tamoxifen]
- Fold change relative to SHAM control: Growth associated protein 43: 0.8 fold
- Fold change relative to SHAM control: H2A histone family, member Y: 1.4 fold
- Fold change relative to SHAM control: Heparan sulfate proteoglycan 2 (perlecan): 1.0 fold
- Fold change relative to SHAM control: Histone H2A.F/Z variant: 1.4 fold
- Fold change relative to SHAM control: Insulin-like growth factor binding protein 2, 36 kda: 1.7 fold
- Fold change relative to SHAM control: Insulin-like growth factor binding protein 5: 1.0 fold
- Fold change relative to SHAM control: Integrin, beta 5: 0.9 fold
- Fold change relative to SHAM control: Intercrine-alpha, mrna sequence: 0.9 fold
- Fold change relative to SHAM control: LDL receptor adaptor protein: 1.6 fold
- Fold change relative to SHAM control: LIM and senescent cell antigen-like domains 1: 1.1 fold
- Fold change relative to SHAM control: Laminin, beta 1: 1.0 fold
- Fold change relative to SHAM control: Latent transforming growth factor beta binding protein 1: 1.2 fold
- Fold change relative to SHAM control: Matrix metalloproteinase 19: 0.3 fold
- Fold change relative to SHAM control: Mitogen-activated protein kinase kinase kinase kinase 4: 1.0 fold
- Fold change relative to SHAM control: Nidogen (enactin): 1.4 fold
- Fold change relative to SHAM control: Osteoglycin (osteoinductive factor, mimecan): 0.8 fold
- Fold change relative to SHAM control: Peroxiredoxin 1: 1.4 fold
- Fold change relative to SHAM control: Phosphatase and tensin homolog (mutated in multiple advanced cancers 1): 1.0 fold
- Fold change relative to SHAM control: Phospholipid transfer protein: 0.9 fold
- Fold change relative to SHAM control: Pituitary tumour-transforming 1 interacting protein: 0.9 fold
- Fold change relative to SHAM control: Procollagen C-endopeptidase enhancer: 1.1 fold
- Fold change relative to SHAM control: Procollagen-proline, 2-oxoglutarate 4-dioxygenase (proline 4-hydroxylase), alpha polypeptide II: 1.0 fold
- Fold change relative to SHAM control: Progesterone receptor: 1.5 fold
- Fold change relative to SHAM control: Protein tyrosine kinase 9: 1.1 fold
- Fold change relative to SHAM control: SET domain, bifurcated 1: 1.4 fold
- Fold change relative to SHAM control: SPARC-like 1 (mast9, hevin): 0.8 fold
- Fold change relative to SHAM control: Secreted frizzled-related protein 1: 1.1 fold
- Fold change relative to SHAM control: Secreted frizzled-related protein 4: 1.4 fold
- Fold change relative to SHAM control: Secreted protein, acidic, cysteine-rich (osteonectin): 1.0 fold
- Fold change relative to SHAM control: Serine (or cysteine) proteinase inhibitor, clade H (heat shock protein 47), member 1, (collagen binding protein 1): 1.1 fold
- Fold change relative to SHAM control: Solute carrier family 22 (organic cation transporter), member 1-like: 1.5 fold
- Fold change relative to SHAM control: Solute carrier family 25 (mitochondrial carrier; adenine nucleotide translocator), member 5: 1.5 fold
- Fold change relative to SHAM control: Stem cell growth factor; lymphocyte secreted C-type lectin: 0.9 fold
- Fold change relative to SHAM control: Tenascin C (hexabrachion): 2.9 fold
- Fold change relative to SHAM control: Testis Enhanced Gene Transcript (Bax Inhibitor 1): 1.5 fold
- Fold change relative to SHAM control: Thioredoxin interacting protein: 0.9 fold
- Fold change relative to SHAM control: Transforming growth factor, beta-induced, 68 kda: 1.0 fold
- Fold change relative to SHAM control: Ubiquinol-cytochrome c reductase, Rieske iron-sulfur polypeptide 1: 1.1 fold
- Fold change relative to SHAM control: Wingless-type MMTV integration site family, member 2B: 1.1 fold
- Fold change relative to SHAM control: Wingless-type MMTV integration site family, member 16: 1.0 fold
- Fold change relative to OVX: Insulin receptor (Table 46): 0.7 fold
- Fold change relative to SHAM control: Insulin receptor (Table 46): 1.2 fold
- Fold change relative to OVX: Insulin receptor (Table 51): 0.7 fold
- Fold change relative to SHAM control: Insulin receptor (Table 51): 1.2 fold
- Fold change relative to OVX: Fibronectin 1 (entry with OVX average 39): 2.3 fold
- Fold change relative to OVX: Bone morphogenetic protein 1 (entry with OVX average 79): 1.9 fold
- Fold change relative to OVX: Bone morphogenetic protein 1 (entry with OVX average 93): 2.2 fold
- Fold change relative to OVX: Insulin-like growth factor 1 (somatomedin C) (entry with OVX average 102): 3.7 fold
- Fold change relative to OVX: Fibrillin 1 (Marfan syndrome) (entry with OVX average 124): 1.9 fold
- Fold change relative to OVX: Collagen, type I, alpha 2 (entry with OVX average 154): 6.1 fold
- Fold change relative to OVX: Insulin-like growth factor 1 (somatomedin C) (entry with OVX average 156): 4.6 fold
- Fold change relative to OVX: Solute carrier family 2 (facilitated glucose/fructose transporter), member 5 (entry with OVX average 171): 2.2 fold
- Fold change relative to OVX: Solute carrier family 2 (facilitated glucose/fructose transporter), member 5 (entry with OVX average 176): 2.1 fold
- Fold change relative to OVX: Collagen, type IV, alpha 1 (entry with OVX average 182): 3.2 fold
- Fold change relative to OVX: Cyclin-dependent kinase inhibitor 1C (p57, Kip2) (entry with OVX average 224): 0.7 fold
- Fold change relative to OVX: Insulin-like growth factor 1 (somatomedin C) (entry with OVX average 310): 4.8 fold
- Fold change relative to OVX: Fibronectin 1 (entry with OVX average 419): 2.0 fold
- Fold change relative to OVX: Cyclin-dependent kinase inhibitor 1C (p57, Kip2) (entry with OVX average 527): 0.5 fold
- Fold change relative to OVX: Fibronectin 1 (entry with OVX average 586): 1.9 fold
- Fold change relative to OVX: Fibronectin 1 (entry with OVX average 648): 1.9 fold
- Fold change relative to OVX: Collagen, type IV, alpha 1 (entry with OVX average 690): 2.7 fold
- Fold change relative to OVX: Fibronectin 1 (entry with OVX average 757): 1.6 fold
- Fold change relative to OVX: Cyclin-dependent kinase inhibitor 1C (p57, Kip2) (entry with OVX average 762): 0.5 fold
- Fold change relative to OVX: ATP synthase, H+ transporting, mitochondrial F0 complex, subunit c (subunit 9) isoform 3 (entry with OVX average 811): 2.0 fold
- Fold change relative to OVX: Fibrillin 1 (Marfan syndrome) (entry with OVX average 874): 2.1 fold
- Fold change relative to OVX: ATP synthase, H+ transporting, mitochondrial F0 complex, subunit c (subunit 9) isoform 3 (entry with OVX average 1007): 1.9 fold
- Fold change relative to OVX: Collagen, type III, alpha 1 (Ehlers-Danlos syndrome type IV, autosomal dominant) (entry with OVX average 1084): 3.4 fold
- Fold change relative to OVX: Collagen, type I, alpha 2 (entry with OVX average 2757): 3.7 fold
- Fold change relative to OVX: Collagen, type III, alpha 1 (Ehlers-Danlos syndrome type IV, autosomal dominant) (entry with OVX average 3445): 2.9 fold
- Fold change relative to OVX: H3 histone, family 3A (entry with OVX average 9495): 1.4 fold
- Fold change relative to OVX: H3 histone, family 3A (entry with OVX average 9692): 1.4 fold
- Fold change relative to SHAM control: Fibronectin 1 (entry with SHAM average 100): 0.9 fold
- Fold change relative to SHAM control: Bone morphogenetic protein 1 (entry with SHAM average 143): 1.0 fold
- Fold change relative to SHAM control: Cyclin-dependent kinase inhibitor 1C (p57, Kip2) (entry with SHAM average 201): 0.8 fold
- Fold change relative to SHAM control: Bone morphogenetic protein 1 (entry with SHAM average 205): 1.0 fold
- Fold change relative to SHAM control: Insulin-like growth factor 1 (somatomedin C) (entry with SHAM average 226): 1.7 fold
- Fold change relative to SHAM control: Fibrillin 1 (Marfan syndrome) (entry with SHAM average 236): 1.0 fold
- Fold change relative to SHAM control: Solute carrier family 2 (facilitated glucose/fructose transporter), member 5 (entry with SHAM average 291): 1.3 fold
- Fold change relative to SHAM control: Solute carrier family 2 (facilitated glucose/fructose transporter), member 5 (entry with SHAM average 317): 1.2 fold
- Fold change relative to SHAM control: Insulin-like growth factor 1 (somatomedin C) (entry with SHAM average 417): 1.7 fold
- Fold change relative to SHAM control: Collagen, type IV, alpha 1 (entry with SHAM average 436): 1.3 fold
- Fold change relative to SHAM control: Cyclin-dependent kinase inhibitor 1C (p57, Kip2) (entry with SHAM average 459): 0.6 fold
- Fold change relative to SHAM control: Collagen, type I, alpha 2 (entry with SHAM average 493): 1.9 fold
- Fold change relative to SHAM control: Insulin-like growth factor 1 (somatomedin C) (entry with SHAM average 581): 2.6 fold
- Fold change relative to SHAM control: Cyclin-dependent kinase inhibitor 1C (p57, Kip2) (entry with SHAM average 660): 0.6 fold
- Fold change relative to SHAM control: Fibronectin 1 (entry with SHAM average 920): 0.9 fold
- Fold change relative to SHAM control: ATP synthase, H+ transporting, mitochondrial F0 complex, subunit c (subunit 9) isoform 3 (entry with SHAM average 1045): 1.6 fold
- Fold change relative to SHAM control: Fibronectin 1 (entry with SHAM average 1089): 1.0 fold
- Fold change relative to SHAM control: Collagen, type IV, alpha 1 (entry with SHAM average 1143): 1.6 fold
- Fold change relative to SHAM control: Fibronectin 1 (entry with SHAM average 1288): 0.9 fold
- Fold change relative to SHAM control: Fibronectin 1 (entry with SHAM average 1301): 0.9 fold
- Fold change relative to SHAM control: ATP synthase, H+ transporting, mitochondrial F0 complex, subunit c (subunit 9) isoform 3 (entry with SHAM average 1355): 1.4 fold
- Fold change relative to SHAM control: Fibrillin 1 (Marfan syndrome) (entry with SHAM average 1388): 1.3 fold
- Fold change relative to SHAM control: Collagen, type III, alpha 1 (Ehlers-Danlos syndrome type IV, autosomal dominant) (entry with SHAM average 2992): 1.2 fold
- Fold change relative to SHAM control: Collagen, type III, alpha 1 (Ehlers-Danlos syndrome type IV, autosomal dominant) (entry with SHAM average 7354): 1.4 fold
- Fold change relative to SHAM control: Collagen, type I, alpha 2 (entry with SHAM average 7758): 1.3 fold
- Fold change relative to SHAM control: H3 histone, family 3A (entry with SHAM average 9408): 1.4 fold
- Fold change relative to SHAM control: H3 histone, family 3A (entry with SHAM average 10239): 1.3 fold
